In US20250360235A1, “RADI[…] AND METHOD FOR RADIOLABELLING” (Telix Innovations SA, priority 2024, published 2025):

Experiment: Radiochemical purity by HPLC over time after radiolabelling
Assay type: physicochemical
Experimental: Table 1 to Table 5 show the results of various radiolabelling experiments on radiochemical purity and the chelation yield. The radiolabelling experiments in the tables are carried out as described in: • Example 1 for when the gallium-68 source is GE Liquid target generator and EZAG GalliaPharm generator; • Example 2 for when the gallium-68 source is IRE Galli Eo generator; • Example 3 for when the gallium-68 source is GE solid target generator;
However, the experiments were carried out with the amount of ascorbic acid as indicated in the Tables 1 to 5, and the activity as indicated in the Tables 1 to 5. Radiochemical purities were measured at various times (T0, T1, T4, T6) after the radiolabelled experiments have been conducted.
The kits of Example 1, Example 2 or Example 3, with amounts of ascorbic acid as set out in Table 7 were used in the experiments for the ascorbic acid bracketing matrix. Three strengths of [^68Ga]Ga-PSMA-11 will be tested, i.e. 50 mCi/ml, 7 mCi/ml and 1 mCi/ml. Radiochemical purity was determined at different time points (TO, T1, T4 or T6), as set out in Table 7.

O=C([O-])CN(CCN(CC(=O)[O-])Cc1cc(CCC(=O)NCCCCCC(=O)NCCCC[C@H](NC(=O)N[C@@H](CCC(=O)O)C(=O)O)C(=O)O)ccc1[O-])Cc1cc(CCC(=O)O)ccc1[O-].[68Ga+3].[OH3+] [[^68Ga]PSMA-11, gallium-68 radiolabelled Glu-urea-Lys-HBED-CC (gozetotide or PSMA-11)]
Radiochemical Purity (HPLC) Ga-68 PSMA-11 (%) (1 mg ascorbic acid, 58.7-71.1 mCi, 7.47-8.99 mCi/mL, GE Liquid target, average of 3, T0): 100% | Radiochemical Purity (HPLC) Ga-68 PSMA-11 (%) (1 mg ascorbic acid, 58.7-71.1 mCi, 7.47-8.99 mCi/mL, GE Liquid target, average of 3, T4 (4 h)): 100% | Radiochemical Purity (HPLC) Ga-68 PSMA-11 (%) (1 mg ascorbic acid, 58.7-71.1 mCi, 7.47-8.99 mCi/mL, GE Liquid target, n=3, T0): C (C = conforms to specifications) | Radiochemical Purity (HPLC) Ga-68 PSMA-11 (%) (1 mg ascorbic acid, 58.7-71.1 mCi, 7.47-8.99 mCi/mL, GE Liquid target, n=3, T4 (4 h)): C (C = conforms to specifications) | Radiochemical Purity (HPLC) Ga-68 PSMA-11 (%) (2.5 mg ascorbic acid, 49.9-76.9 mCi, 6.31-9.72 mCi/mL, GE Liquid target, average of 3, T0): 100% | Radiochemical Purity (HPLC) Ga-68 PSMA-11 (%) (2.5 mg ascorbic acid, 49.9-76.9 mCi, 6.31-9.72 mCi/mL, GE Liquid target, average of 3, T4 (4 h)): 100% | Radiochemical Purity (HPLC) Ga-68 PSMA-11 (%) (2.5 mg ascorbic acid, 49.9-76.9 mCi, 6.31-9.72 mCi/mL, GE Liquid target, n=3, T0): C (C = conforms to specifications) | Radiochemical Purity (HPLC) Ga-68 PSMA-11 (%) (2.5 mg ascorbic acid, 49.9-76.9 mCi, 6.31-9.72 mCi/mL, GE Liquid target, n=3, T4 (4 h)): C (C = conforms to specifications) | Radiochemical Purity (HPLC) Ga-68 PSMA-11 (%) (5 mg ascorbic acid, 60-69.9 mCi, 7.61-8.81 mCi/mL, 3 × GE Liquid Target, 3 × EZAG GalliaPharm, average of 6, T0): 100% | Radiochemical Purity (HPLC) Ga-68 PSMA-11 (%) (5 mg ascorbic acid, 60-69.9 mCi, 7.61-8.81 mCi/mL, 3 × GE Liquid Target, 3 × EZAG GalliaPharm, average of 6, T4 (4 h)): 100% | Radiochemical Purity (HPLC) Ga-68 PSMA-11 (%) (5 mg ascorbic acid, 60-69.9 mCi, 7.61-8.81 mCi/mL, 3 × GE Liquid Target, 3 × EZAG GalliaPharm, n=6, T0): C (C = conforms to specifications) | Radiochemical Purity (HPLC) Ga-68 PSMA-11 (%) (5 mg ascorbic acid, 60-69.9 mCi, 7.61-8.81 mCi/mL, 3 × GE Liquid Target, 3 × EZAG GalliaPharm, n=6, T4 (4 h)): C (C = conforms to specifications) | Radiochemical Purity (HPLC) Ga-68 PSMA-11 (%) (10 mg ascorbic acid, 514-520 mCi, 49.0-66.1 mCi/mL, GE Solid Target, average of 3, T0): 100% | Radiochemical Purity (HPLC) Ga-68 PSMA-11 (%) (10 mg ascorbic acid, 514-520 mCi, 49.0-66.1 mCi/mL, GE Solid Target, average of 3, T6 (6 h)): 100% | Radiochemical Purity (HPLC) Ga-68 PSMA-11 (%) (10 mg ascorbic acid, 514-520 mCi, 49.0-66.1 mCi/mL, GE Solid Target, n=3, T0): C (C = conforms to specifications) | Radiochemical Purity (HPLC) Ga-68 PSMA-11 (%) (10 mg ascorbic acid, 514-520 mCi, 49.0-66.1 mCi/mL, GE Solid Target, n=3, T6 (6 h)): C (C = conforms to specifications) | Radiochemical Purity (HPLC) Ga-68 PSMA-11 (%) (15 mg ascorbic acid, 10.0-18.4 mCi, 0.95-1.77 mCi/mL, 1 × EZAG GalliaPharm, 2 × IRE Galli Eo, average of 3, T0): 100% | Radiochemical Purity (HPLC) Ga-68 PSMA-11 (%) (15 mg ascorbic acid, 10.0-18.4 mCi, 0.95-1.77 mCi/mL, 1 × EZAG GalliaPharm, 2 × IRE Galli Eo, average of 3, T1 (1 h)): 100% | Radiochemical Purity (HPLC) Ga-68 PSMA-11 (%) (15 mg ascorbic acid, 10.0-18.4 mCi, 0.95-1.77 mCi/mL, 1 × EZAG GalliaPharm, 2 × IRE Galli Eo, n=3, T0): C (C = conforms to specifications) | Radiochemical Purity (HPLC) Ga-68 PSMA-11 (%) (15 mg ascorbic acid, 10.0-18.4 mCi, 0.95-1.77 mCi/mL, 1 × EZAG GalliaPharm, 2 × IRE Galli Eo, n=3, T1 (1 h)): C (C = conforms to specifications) | Radiochemical Purity (HPLC) Ga-68 PSMA-11 (%) (15 mg ascorbic acid, 23.7-47.6 mCi, 2.26-4.53 mCi/mL, 1 × EZAG GalliaPharm, 2 × IRE Galli Eo, average of 3, T0): 100% | Radiochemical Purity (HPLC) Ga-68 PSMA-11 (%) (15 mg ascorbic acid, 23.7-47.6 mCi, 2.26-4.53 mCi/mL, 1 × EZAG GalliaPharm, 2 × IRE Galli Eo, average of 3, T4 (4 h)): 100% | Radiochemical Purity (HPLC) Ga-68 PSMA-11 (%) (15 mg ascorbic acid, 23.7-47.6 mCi, 2.26-4.53 mCi/mL, 1 × EZAG GalliaPharm, 2 × IRE Galli Eo, n=3, T0): C (C = conforms to specifications) | Radiochemical Purity (HPLC) Ga-68 PSMA-11 (%) (15 mg ascorbic acid, 23.7-47.6 mCi, 2.26-4.53 mCi/mL, 1 × EZAG GalliaPharm, 2 × IRE Galli Eo, n=3, T4 (4 h)): C (C = conforms to specifications) | Radiochemical Purity (HPLC) Ga-68 PSMA-11 (%) (20 mg ascorbic acid, 514-544 mCi, 48.3-51.9 mCi/mL, GE Solid Target, average of 2, T0): 100% | Radiochemical Purity (HPLC) Ga-68 PSMA-11 (%) (20 mg ascorbic acid, 514-544 mCi, 48.3-51.9 mCi/mL, GE Solid Target, average of 2, T6 (6 h)): 100% | Radiochemical Purity (HPLC) Ga-68 PSMA-11 (%) (20 mg ascorbic acid, 514-544 mCi, 48.3-51.9 mCi/mL, GE Solid Target, n=2, T0): C (C = conforms to specifications) | Radiochemical Purity (HPLC) Ga-68 PSMA-11 (%) (20 mg ascorbic acid, 514-544 mCi, 48.3-51.9 mCi/mL, GE Solid Target, n=2, T6 (6 h)): C (C = conforms to specifications) | Radiochemical Purity (HPLC) Ga-68 PSMA-11 (%) (25 mg ascorbic acid, 19.5-20.0 mCi, 1.85-1.90 mCi/mL, EZAG GalliaPharm, average of 2, T0): 100% | Radiochemical Purity (HPLC) Ga-68 PSMA-11 (%) (25 mg ascorbic acid, 19.5-20.0 mCi, 1.85-1.90 mCi/mL, EZAG GalliaPharm, average of 2, T1 (1 h)): 100%
